Laboratory results published in PubChem BioAssay (NCI).
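Test compounds were applied to cells in 96-well plates for 48 hours at 5 doses. TGI denotes the concentration required for complete inhibition of growth.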 Where a SMILES comes first, the peptide text is derived from it. [ ]: non-standard residue; d: D form. The star is where a group is joined. Phe(4-NO2) = N[CH](Cc1ccc([N+](=O)[O-])cc1)C(=O)O; Boc = CC(C)(C)OC(=O)*

Columns and labels:
Experiment in all cases: NCI-60 cell line screen, 48 h
PC-3 prostate = system: PC-3 prostate
786-0 renal = system: 786-0 renal
ACHN renal = system: ACHN renal
HCT-116 colon = system: HCT-116 colon
NCI-H460 lung = system: NCI-H460 lung
CCRF-CEM leukemia = system: CCRF-CEM leukemia
HS 578T breast = system: HS 578T breast
SN12C renal = system: SN12C renal
SK-OV-3 ovarian = system: SK-OV-3 ovarian
COLO 205 colon = system: COLO 205 colon
MDA-N = system: MDA-N
CAKI-1 renal = system: CAKI-1 renal
IGROV1 ovarian = system: IGROV1 ovarian
HCC-2998 colon = system: HCC-2998 colon
NCI-H23 lung = system: NCI-H23 lung
HOP-92 NSCLC = system: HOP-92 NSCLC
HT29 colon = system: HT29 colon
NCI/ADR-RES ovarian = system: NCI/ADR-RES ovarian
HOP-62 NSCLC = system: HOP-62 NSCLC
RXF 393 renal = system: RXF 393 renal

CSc1ccc(/C=C2\N=C(c3ccccc3)N(/N=C3\C(=O)Nc4ccccc43)C2=O)cc1
TGI (PC-3 prostate): > 100 µM
TGI (786-0 renal): > 100 µM
TGI (ACHN renal): > 100 µM
TGI (HCT-116 colon): > 100 µM
TGI (NCI-H460 lung): > 100 µM
TGI (CCRF-CEM leukemia): > 100 µM
TGI (HS 578T breast): > 100 µM
TGI (SN12C renal): > 100 µM
TGI (SK-OV-3 ovarian): > 100 µM
TGI (COLO 205 colon): > 100 µM
TGI (MDA-N): > 100 µM
TGI (CAKI-1 renal): > 100 µM
TGI (IGROV1 ovarian): > 100 µM
TGI (HCC-2998 colon): > 100 µM
TGI (NCI-H23 lung): > 100 µM
TGI (HOP-92 NSCLC): > 100 µM
TGI (HT29 colon): > 100 µM
TGI (NCI/ADR-RES ovarian): > 100 µM
TGI (HOP-62 NSCLC): > 100 µM
TGI (RXF 393 renal): > 100 µM

O=c1oc2c/c(=C\c3ccccn3)c(=O)c3cccc1c3-2
TGI (PC-3 prostate): > 100 µM
TGI (786-0 renal): > 100 µM
TGI (ACHN renal): > 100 µM
TGI (HCT-116 colon): > 100 µM
TGI (NCI-H460 lung): > 100 µM
TGI (CCRF-CEM leukemia): > 100 µM
TGI (HS 578T breast): > 100 µM
TGI (SN12C renal): > 100 µM
TGI (SK-OV-3 ovarian): > 100 µM
TGI (COLO 205 colon): > 100 µM
TGI (MDA-N): > 100 µM
TGI (CAKI-1 renal): > 100 µM
TGI (IGROV1 ovarian): > 100 µM
TGI (HCC-2998 colon): > 100 µM
TGI (NCI-H23 lung): > 100 µM
TGI (HOP-92 NSCLC): > 100 µM
TGI (HT29 colon): > 100 µM
TGI (NCI/ADR-RES ovarian): > 100 µM
TGI (HOP-62 NSCLC): 39.2 µM
TGI (RXF 393 renal): 37.7 µM

CC(=O)OCC1OC(Oc2cc(C)c(O)cc2C/C=C(\C)CC/C=C(\C)C[C@@H](C=C(C)C)OC(C)=O)C(O)C(OC(C)=O)C1OC(C)=O (stereo not given in full)
TGI (PC-3 prostate): > 50 µM
TGI (786-0 renal): > 50 µM
TGI (ACHN renal): > 50 µM
TGI (HCT-116 colon): > 50 µM
TGI (NCI-H460 lung): > 50 µM
TGI (CCRF-CEM leukemia): 29.4 µM
TGI (HS 578T breast): 39.2 µM
TGI (SN12C renal): > 50 µM
TGI (SK-OV-3 ovarian): > 50 µM
TGI (COLO 205 colon): 16.8 µM
TGI (MDA-N): > 50 µM
TGI (CAKI-1 renal): > 50 µM
TGI (IGROV1 ovarian): > 50 µM
TGI (HCC-2998 colon): 41.2 µM
TGI (NCI-H23 lung): > 50 µM
TGI (HOP-92 NSCLC): > 50 µM
TGI (HT29 colon): > 50 µM
TGI (NCI/ADR-RES ovarian): > 50 µM
TGI (HOP-62 NSCLC): > 50 µM
TGI (RXF 393 renal): 34.4 µM

CCCCCC(=Nc1n[nH]nc1C(N)=O)OCC
TGI (PC-3 prostate): > 100 µM
TGI (786-0 renal): > 100 µM
TGI (ACHN renal): > 100 µM
TGI (HCT-116 colon): > 100 µM
TGI (NCI-H460 lung): > 100 µM
TGI (CCRF-CEM leukemia): > 100 µM
TGI (HS 578T breast): > 100 µM
TGI (SN12C renal): > 100 µM
TGI (SK-OV-3 ovarian): > 100 µM
TGI (COLO 205 colon): > 100 µM
TGI (MDA-N): > 100 µM
TGI (CAKI-1 renal): > 100 µM
TGI (IGROV1 ovarian): > 100 µM
TGI (HCC-2998 colon): > 100 µM
TGI (NCI-H23 lung): > 100 µM
TGI (HOP-92 NSCLC): > 100 µM
TGI (HT29 colon): > 100 µM
TGI (NCI/ADR-RES ovarian): > 100 µM
TGI (HOP-62 NSCLC): > 100 µM
TGI (RXF 393 renal): > 100 µM

COC(=O)CCC(NC(=O)OC(C)(C)C)C(=O)NC(Cc1ccc([N+](=O)[O-])cc1)C(=O)NC(CCC(=O)OC)C(=O)OC (stereo not given) (Boc-Glu(OMe)-[Phe(4-NO2)]-Glu(OMe)-OMe; configuration not given here)
TGI (PC-3 prostate): > 100 µM
TGI (786-0 renal): > 100 µM
TGI (ACHN renal): > 100 µM
TGI (HCT-116 colon): > 100 µM
TGI (NCI-H460 lung): > 100 µM
TGI (CCRF-CEM leukemia): 36.8 µM
TGI (HS 578T breast): > 100 µM
TGI (SN12C renal): > 100 µM
TGI (SK-OV-3 ovarian): > 100 µM
TGI (COLO 205 colon): > 100 µM
TGI (MDA-N): > 100 µM
TGI (CAKI-1 renal): > 100 µM
TGI (IGROV1 ovarian): > 100 µM
TGI (HCC-2998 colon): > 100 µM
TGI (NCI-H23 lung): > 100 µM
TGI (HOP-92 NSCLC): > 100 µM
TGI (HT29 colon): > 100 µM
TGI (NCI/ADR-RES ovarian): > 100 µM
TGI (HOP-62 NSCLC): > 100 µM
TGI (RXF 393 renal): > 100 µM

O=c1c2ccccc2nc2sc(/N=C/C=C/c3ccccc3)nn12
TGI (PC-3 prostate): > 100 µM
TGI (786-0 renal): > 100 µM
TGI (ACHN renal): > 100 µM
TGI (HCT-116 colon): > 100 µM
TGI (NCI-H460 lung): > 100 µM
TGI (CCRF-CEM leukemia): > 100 µM
TGI (HS 578T breast): > 100 µM
TGI (SN12C renal): > 100 µM
TGI (SK-OV-3 ovarian): > 100 µM
TGI (COLO 205 colon): > 100 µM
TGI (MDA-N): > 100 µM
TGI (CAKI-1 renal): > 100 µM
TGI (IGROV1 ovarian): > 100 µM
TGI (HCC-2998 colon): > 100 µM
TGI (NCI-H23 lung): > 100 µM
TGI (HOP-92 NSCLC): > 100 µM
TGI (HT29 colon): > 100 µM
TGI (NCI/ADR-RES ovarian): > 100 µM
TGI (HOP-62 NSCLC): > 100 µM
TGI (RXF 393 renal): > 100 µM

CC(C)NC(=O)OCc1c(COC(=O)NC(C)C)c(-c2cc[n+](COC(=O)C(C)C)cc2)n2c1CCC2
TGI (PC-3 prostate): > 100 µM
TGI (786-0 renal): > 100 µM
TGI (ACHN renal): > 82.7 µM
TGI (HCT-116 colon): > 100 µM
TGI (NCI-H460 lung): > 100 µM
TGI (CCRF-CEM leukemia): > 100 µM
TGI (HS 578T breast): > 100 µM
TGI (SN12C renal): > 100 µM
TGI (SK-OV-3 ovarian): > 100 µM
TGI (COLO 205 colon): > 100 µM
TGI (MDA-N): > 100 µM
TGI (CAKI-1 renal): > 94.8 µM
TGI (IGROV1 ovarian): > 100 µM
TGI (HCC-2998 colon): > 100 µM
TGI (NCI-H23 lung): > 100 µM
TGI (HOP-92 NSCLC): > 100 µM
TGI (HT29 colon): > 100 µM
TGI (NCI/ADR-RES ovarian): > 100 µM
TGI (HOP-62 NSCLC): > 100 µM
TGI (RXF 393 renal): 62.5 µM

COC(=O)N/N=C(/c1nc2ccc([N+](=O)[O-])cc2[nH]c1=O)C(O)c1ccc(OC)c(OC)c1 (stereo not given)
TGI (PC-3 prostate): > 100 µM
TGI (786-0 renal): > 100 µM
TGI (ACHN renal): > 100 µM
TGI (HCT-116 colon): > 100 µM
TGI (NCI-H460 lung): > 100 µM
TGI (CCRF-CEM leukemia): > 100 µM
TGI (HS 578T breast): > 100 µM
TGI (SN12C renal): > 100 µM
TGI (SK-OV-3 ovarian): > 100 µM
TGI (COLO 205 colon): > 76.9 µM
TGI (MDA-N): > 100 µM
TGI (CAKI-1 renal): > 100 µM
TGI (IGROV1 ovarian): > 100 µM
TGI (HCC-2998 colon): > 100 µM
TGI (NCI-H23 lung): > 100 µM
TGI (HOP-92 NSCLC): > 100 µM
TGI (HT29 colon): > 100 µM
TGI (NCI/ADR-RES ovarian): > 100 µM
TGI (HOP-62 NSCLC): > 100 µM
TGI (RXF 393 renal): > 100 µM

O=C1CSC(c2ccccc2O)N1c1nc2cc3sc(N4C(=O)CSC4c4ccccc4O)nc3cc2s1 (stereo not given)
TGI (PC-3 prostate): > 100 µM
TGI (786-0 renal): > 100 µM
TGI (ACHN renal): > 100 µM
TGI (HCT-116 colon): > 100 µM
TGI (NCI-H460 lung): > 33.6 µM
TGI (CCRF-CEM leukemia): > 100 µM
TGI (HS 578T breast): > 100 µM
TGI (SN12C renal): > 100 µM
TGI (SK-OV-3 ovarian): > 100 µM
TGI (COLO 205 colon): > 100 µM
TGI (MDA-N): > 100 µM
TGI (CAKI-1 renal): > 100 µM
TGI (IGROV1 ovarian): > 100 µM
TGI (HCC-2998 colon): > 100 µM
TGI (NCI-H23 lung): > 100 µM
TGI (HOP-92 NSCLC): > 100 µM
TGI (HT29 colon): > 100 µM
TGI (NCI/ADR-RES ovarian): > 100 µM
TGI (HOP-62 NSCLC): > 100 µM
TGI (RXF 393 renal): > 100 µM
